Reference: publication PMC7248897, “Synthesis, Biological Evaluation and In Silico Studies of Certain Oxindole–Indole Conjugates as Anticancer CDK Inhibitors” (Molecules, 2020)

Key:
[1] = tested on: Bax; test: ELISA of Bax level in MCF-7 cells; format: cell-based, human; conditions: for fold increase of Bax level: MCF-7, vs control; for Bax: MCF-7 cells treated at IC50, 48 h, control 38.3 ± 2.2
Procedure: (§1) Homogeneously, both conjugates were able to decrease the level of the anti-apoptotic Bcl-2 protein by 2.12-, and 1.7-fold, respectively (Table 3). As a more analytical variable, the Bax/Bcl-2 ratio was verified to be amplified by conjugates 6e and 6f, 18- and 12-fold, respectively.
(§2) Assessment of the levels for the proapoptotic markers (Bax, caspase-3, and p53) as well as the antiapoptotic marker (Bcl-2) was carried out through the use of ELISA colorimetric kits in accordance with the manufacturer’s instructions, as mentioned earlier. In addition, the pro-apoptotic potential of indoles 6e and 6f towards MCF-7 cells was evaluated through an FITC Annexin V apoptosis detection kit by flow cytometry, in accordance with the manufacturer’s protocol and referring to the reported procedures.
(§3) The levels of the pro-apoptotic markers (Bax, caspase-3 and p53) as well as the anti-apoptotic marker Bcl-2 were determined using ELISA colorimetric kits per the manufacturer’s instructions. Breast cancer MCF-7 cells were cultured as a monolayer in T-25 flasks and were seeded to attain 30% confluency prior to treatment. Cells were then […]
(§4) of treatment, cells were collected via trypsinization and centrifuged at 10,000 rpm. The pellet was then rinsed with PBS and lysed in RIPA lysis buffer at 4 °C for 45 min, then centrifuged at 14,000 rpm for 20 min to remove the cellular debris. Lysates were then collected and stored at −80 °C for later protein determination using Pierce BCA Protein Assay Kit according to manufacturer’s recommendations.
(§5) The cell lysate was diluted 10 times, and 100 μL ([…]) was added to the wells of four separate microtiter plates for the four ELISA kits that were pre-coated with primary antibodies specific to Bax, Bcl-2, caspase-3 and p53 proteins, respectively. A secondary biotin-linked antibody specific to the protein captured by the primary antibody was further added to bind the captured protein, forming a “sandwich” of specific antibodies around the desired protein in the cell lysate. The streptavidin-HRP complex was then used to bind the biotin-linked secondary antibody through its streptavidin portion. The HRP domain reacted with the added TMB substrate to form a colored product that measured at 450 nm by a plate reader ChroMate-4300 after the reaction was terminated via the addition of stop solution. […]
(§6) Cells were then rinsed in binding buffer and resuspended in 150
(§7) μL of binding buffer with the addition of 1 μL of DAPI (1 μg/μL in PBS). […]

[2] = tested on: Bcl-2; test: ELISA of Bcl-2 level in MCF-7 cells; format: cell-based, human; conditions: for fold decrease of Bcl-2 level: MCF-7, vs control; for Bcl-2: MCF-7 cells treated at IC50, 48 h, control 4.65 ± 0.23
Procedure: as §1, §2, §3, §4, §5, §6, §7

[3] = tested on: Bax/Bcl-2; test: Bax/Bcl-2 ratio in MCF-7 cells; format: cell-based, human; conditions: for fold increase of Bax/Bcl-2 ratio: MCF-7, vs control; for Bax/Bcl-2: MCF-7 cells treated at IC50, control 8.2
Procedure: as §1, §2, §3, §4, §5, §6, §7

[4] = tested on: caspase-3; test: ELISA of active caspase-3 level in MCF-7 cells; format: cell-based, human; conditions: for fold increase of caspase-3 level: MCF-7, in comparison to the control; for Caspase-3: active caspase-3, MCF-7 cells treated at IC50, 48 h, control 35.92 ± 1.8
Procedure: (§8) In addition, their influence on the level of caspase-3 and p53 was estimated in the MCF-7 cell line.
as §2, §3, §4, §5, §6, §7

[5] = tested on: p53; test: ELISA of p53 level in MCF-7 cells; format: cell-based, human; conditions: for fold increase of p53 level: MCF-7, as compared to the control; for p53: MCF-7 cells treated at IC50, 48 h, control 41.26 ± 2.7
Procedure: as §8, §2, §3, §4, §5, §6, §7

[6] = biological target: T1, CDK4 (Homo sapiens, UniProt P11802); test: CDK4 kinase inhibition (Reaction Biology HotSpot); format: biochemical; conditions: for inhibition at 20 µM: single dose of 20 µM
T1 construct: purchased Reaction Biology Corp. (Kinase HotSpot service)
T1 sequence (P11802 whole entry): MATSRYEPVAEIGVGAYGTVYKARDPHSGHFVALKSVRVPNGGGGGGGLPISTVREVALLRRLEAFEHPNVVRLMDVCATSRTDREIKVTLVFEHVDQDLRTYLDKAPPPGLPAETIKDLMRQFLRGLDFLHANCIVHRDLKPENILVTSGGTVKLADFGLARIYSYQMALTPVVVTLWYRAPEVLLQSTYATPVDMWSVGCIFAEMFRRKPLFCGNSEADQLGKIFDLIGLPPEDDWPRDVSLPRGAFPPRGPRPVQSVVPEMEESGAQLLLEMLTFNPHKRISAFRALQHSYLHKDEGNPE
T1 sequence (P24385 whole entry partner): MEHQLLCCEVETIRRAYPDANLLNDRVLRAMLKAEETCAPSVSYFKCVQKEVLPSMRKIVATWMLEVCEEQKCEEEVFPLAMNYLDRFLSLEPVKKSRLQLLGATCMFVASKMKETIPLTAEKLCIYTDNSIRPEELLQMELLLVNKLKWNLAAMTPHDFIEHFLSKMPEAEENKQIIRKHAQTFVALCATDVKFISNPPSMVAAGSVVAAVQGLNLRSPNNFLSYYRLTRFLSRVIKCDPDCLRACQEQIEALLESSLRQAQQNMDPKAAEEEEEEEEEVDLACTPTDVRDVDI
Source text: 5. CDK Kinase Inhibitory Activity
along with required cofactors.
Kinase activity data were
(dimethyl sulfoxide) reactions.

[7] = biological target: CDK9 (Homo sapiens, UniProt P50750); test: CDK9 kinase inhibition (Reaction Biology HotSpot); conditions: read-out: % Enzyme Inhibitory Activity CDK9
Sequence of CDK9 (P50750 whole entry): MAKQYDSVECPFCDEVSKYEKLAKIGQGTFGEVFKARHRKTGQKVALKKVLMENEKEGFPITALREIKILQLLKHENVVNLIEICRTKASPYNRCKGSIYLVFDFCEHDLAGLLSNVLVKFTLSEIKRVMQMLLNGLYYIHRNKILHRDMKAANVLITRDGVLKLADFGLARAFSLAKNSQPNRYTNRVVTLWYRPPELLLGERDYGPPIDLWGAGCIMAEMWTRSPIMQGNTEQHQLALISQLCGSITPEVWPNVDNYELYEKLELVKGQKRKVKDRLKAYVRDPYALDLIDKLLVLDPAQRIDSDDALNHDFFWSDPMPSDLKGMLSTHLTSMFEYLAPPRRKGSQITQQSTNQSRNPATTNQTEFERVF
Sequence of CDK9 (O60563 whole entry partner): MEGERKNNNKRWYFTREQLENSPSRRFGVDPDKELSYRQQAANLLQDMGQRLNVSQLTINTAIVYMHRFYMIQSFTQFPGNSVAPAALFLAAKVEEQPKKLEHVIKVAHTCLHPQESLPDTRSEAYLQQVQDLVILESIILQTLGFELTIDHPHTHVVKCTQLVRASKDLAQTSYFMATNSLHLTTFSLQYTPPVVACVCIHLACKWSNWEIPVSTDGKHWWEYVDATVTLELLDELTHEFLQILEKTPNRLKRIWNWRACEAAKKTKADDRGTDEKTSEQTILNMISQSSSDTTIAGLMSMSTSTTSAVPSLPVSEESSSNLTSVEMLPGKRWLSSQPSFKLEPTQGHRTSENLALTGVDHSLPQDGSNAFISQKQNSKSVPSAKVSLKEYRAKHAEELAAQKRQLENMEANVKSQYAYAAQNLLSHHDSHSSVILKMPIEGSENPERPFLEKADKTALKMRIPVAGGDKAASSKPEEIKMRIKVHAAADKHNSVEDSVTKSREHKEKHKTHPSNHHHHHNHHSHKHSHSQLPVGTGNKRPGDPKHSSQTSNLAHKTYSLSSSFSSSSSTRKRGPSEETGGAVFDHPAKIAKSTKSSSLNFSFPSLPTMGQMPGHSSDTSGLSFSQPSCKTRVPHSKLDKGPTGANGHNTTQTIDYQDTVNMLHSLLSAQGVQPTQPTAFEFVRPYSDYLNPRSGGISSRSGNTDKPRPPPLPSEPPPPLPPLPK
Procedure: The in vitro CDK kinase inhibition assay was performed by Reaction Biology Corp. (PA, USA) (http://www.reactionbiology.com) Kinase HotSpotSM service.
Reaction Biology Corp. Kinase HotSpotSM service (http://www.reactionbiology.com)
was used for screening of tested compounds. CDK Kinase inhibitory activities were
assessed by the HotSpot assay platform, which contained specific kinase/substrate pairs
along with required cofactors. Base reaction buffer: 20 mM Hepes (pH 7.5), 10 mM MgCl2,
Testing compounds were dissolved in 100% DMSO to specific concentration. The serial
dilution was conducted by Integra Viaflo Assist in DMSO. The reaction mixture containing the examined compound and 33P-ATP was incubated at room temperature for
2 h and radioactivity was detected by filter-binding method. Kinase activity data were
expressed as the percent remaining kinase activity in test samples compared to vehicle

COc1ccc2c(c1)/C(=N/NC(=O)c1cc3ccccc3[nH]1)C(=O)N2 [6f]
fold increase of Bax level [1]: 7 fold
Bax [1]: 268.7 ± 9.5 pg/mg of Total Protein
fold decrease of Bcl-2 level [2]: 1.7 fold
Bcl-2 [2]: 2.73 ± 0.13 ng/mg of Total Protein
fold increase of Bax/Bcl-2 ratio [3]: 12 fold
Bax/Bcl-2 [3]: 98.6
fold increase of caspase-3 level [4]: 10.1 fold
Caspase-3 [4]: 364.15 ± 14.8 pg/mg
fold increase of p53 level [5]: 13.3 fold
p53 [5]: 547.60 ± 29.5 pg/mg
inhibition at 20 µM [6]: 14%
inhibition at 20 µM [7]: 8%

Cc1ccc2c(c1)/C(=N/NC(=O)c1cc3ccccc3[nH]1)C(=O)N2 [6e]
fold increase of Bax level [1]: 8.5 fold
Bax [1]: 325.3 ± 12.1 pg/mg of Total Protein
fold decrease of Bcl-2 level [2]: 2.12 fold
Bcl-2 [2]: 2.19 ± 0.10 ng/mg of Total Protein
fold increase of Bax/Bcl-2 ratio [3]: 18 fold
Bax/Bcl-2 [3]: 148.5
fold increase of caspase-3 level [4]: 11.45 fold
Caspase-3 [4]: 411.70 ± 12.3 pg/mg
fold increase of p53 level [5]: 17 fold
p53 [5]: 704.39 ± 32.8 pg/mg
IC50 [6]: 1260 nM
inhibition at 20 µM [6]: 93%
inhibition at 20 µM [7]: 18%
